According to patent US8455397B2, “Penoxsulam as a turfgrass, vineyard and orchard floor herbicide” (Dow AgroSciences, LLC, priority 2005, dated 2013):

Tests used:
[1] = test system: yellow nutsedge (CYPES); assay: Pre-emergence weed nursery field study; format: in vivo, Cypres esculentus L.; conditions: weed nursery in the field, 27 Days After Application
Method: (§1) Field studies were conducted in a non-fumigated weed nursery trial. Weed species were planted in single strips with a row planter at 36 centimeter spacing. Plot size was 3.05×9.2 meters, 4 replicate plots per treatment. Weed species were seeded at appropriate depths and later the same day pre-emergent applications were made to the soil surface. Liquid applications were made using a backpack sprayer calibrated to deliver 187 liters per hectare (L/ha). Applications were made in Fresno, Calif. in June. Sprinkler irrigation was applied at regular intervals throughout study period. Control of each weed species in the study site was made 4 weeks after treatment. Control was determined visually by comparing treated and untreated weeds and scored on a 0 to 100 percent scale where 0 corresponds to no control and 100 corresponds to complete kill or no emergence.

[2] = test system: dandelion (TAROF); assay: Postemergent granule herbicides, turfgrass field studies; format: in vivo, Taraxacum officinale
Method: (§2) Field studies were conducted in established turfgrass sites containing a natural population of target broadleaf weeds. Replicated trials, containing a minimum of three replications and having individual plots ranging in size from 25 to 50 ft. sq (2.3 to 4.6 square meters), were initiated in the late spring when turf and weeds were actively growing. Granule treatments were uniformly applied to individual plots using a common hand-shaker method. Applications were made in the early morning when dew was present. Natural rainfall and supplemental irrigation were used to maintain healthy turf and active weed growth throughout the study period. Control of each weed species in the study site was made at 2, 4 and 8 weeks after treatment. Control was determined visually by comparing treated and untreated weeds and scored on a 0 to 100 percent scale where 0 corresponds to no control and 100 corresponds to complete kill.

[3] = test system: Hydrocotyle species (HYDSS); assay: Post emergent synergy field study, penoxsulam + dicamba granule; format: in vivo; conditions: average of 2 studies 4 weeks after application
Method: as §2, with “Field and greenhouse studies were conducted to determine if there may be any synergistic response when penoxsulam is combined with other herbicides for post emergence broadleaf or sedge control. Field” for “Field”
Component A was penoxsulam at 0.02 or 0.04 lb ai/A. Component B was dicamba at 0.1 lb ai/A. Individual products and mixture were applied on a 30-3-4 granule fertilizer formulated to deliver 116 pounds fertilizer per acre (129 kg per hectare). Loadings for the individual component on the fertilizer were: • Penoxsulam 22.4 gai/Ha (0.02 lb ai/A)=0.017% • Penoxsulam 44.9 gai/Ha (0.04 lb ai/A)=0.034% • Dicamba 112 gae/Ha (0.1 lb ai/A)=0.086%
For combinations the same loadings were applied to the same granule carrier and applied as a single product to test area.

[4] = test system: dandelion (TAROF); assay: Granule carrier comparison, pre-emergence greenhouse study; format: in vivo, Taraxacum officinale; conditions: pre-emergent greenhouse
Method: (§3) Greenhouse and field studies evaluated the effect of two granule carriers and two particles sizes on the postemergent broadleaf activity of penoxsulam. The two carriers were a 46-0-0 and 28-4-12 fertilizer blend and the particle sizes averaged 0.75 mm and 2.15 mm.
(§4) Greenhouse studies were applied both post and pre-emergence to broadleaf weeds and sedge reared from seed or nutlet in 12.7″ (32.25 cm) by 8.8″ (22.35 cm) flats of a loam soil. Particle size and carrier were evaluated post emergence, carrier comparisons with the smaller particle size of 0.75 was evaluated pre-emergence. Stage of growth of species at post emergence application: PLAMA and TAROF in the 3 to 5 leaf stage, TRFRE in the 3rd tri-foliate stage and CYPES in the 3 to 4 leaf stage. Post emergence trial design was a replicated block, one species per flat, 3 replicate flats per treatment. Granule treatments were uniformly applied to individual flats on an area basis using a common hand-shaker method. Post emergence applications were made to the flat covering both soil and misted foliage. Trial was sub-irrigated daily, and watered over the top 1 time per week starting 7 days after application to simulate a natural rainfall event. Active weed growth was maintained throughout the study period. Weed control of each species in the post emergence study was assessed at 2, 3 and 4 weeks after treatment. Pre-emergence trial design was 2 species per flat, 4 replicate flats, block design. Pre-emergence applications were made to the soil surface using a common hand shaker method on an area basis. Overhead irrigation was maintained throughout the trial. Weed control of each species in the pre-emergence study was assessed at 2, 3, 4 and 5 weeks after application. Control was determined visually by comparing treated and untreated flats and scored on a 0 to 100 percent scale where 0 corresponds to no control and 100 corresponds to complete kill.

[5] = test system: junglerice (ECHCO); assay: Pre-emergence weed nursery field study; format: in vivo, Echinochloa colonum; conditions: weed nursery in the field, 27 Days After Application
Method: as §1

[6] = test system: yellow nutsedge (CYPES); assay: Granule carrier comparison, pre-emergence greenhouse study; format: in vivo, Cypres esculentus L.; conditions: pre-emergent greenhouse
Method: as §3, §4

[7] = carrier 28-4-12, particle size 0.75 mm, 5.6 gai/Ha
[8] = carrier 28-4-12, particle size 0.75 mm, 11.2 gai/Ha
[9] = carrier 28-4-12, particle size 0.75 mm, 22.4 gai/Ha
[10] = carrier 46-0-0, particle size 0.75 mm, 5.6 gai/Ha
[11] = carrier 46-0-0, particle size 0.75 mm, 11.2 gai/Ha
[12] = carrier 46-0-0, particle size 0.75 mm, 22.4 gai/Ha

Question: What does the source list for COc1cnc(OC)n2nc(NS(=O)(=O)c3c(OCC(F)F)cccc3C(F)(F)F)nc12 [Penoxsulam, 2-(2,2-difluoroethoxy)-N-(5,8-dimethoxy[1,2,4]triazolo[1,5-c]-pyrimidin-2-yl)-6-(trifluoromethyl)benzenesulfonamide]?
Answer: Pre-emergent Percent Mean Control ([1]; 8.8 gai/Ha): 69%; Pre-emergent Percent Mean Control ([1]; 17.5 gai/Ha): 81%; Pre-emergent Percent Mean Control ([1]; 35 gai/Ha): 88%; Pre-emergent Percent Mean Control ([1]; 70 gai/Ha): 94%; Mean Percent Weed Control ([2]; Table I, 4 Weeks After Treatment, 5 sites, Penoxsulam 140 gai/Ha, Scotts Plus 2 1682+841 gae/Ha, Trimec 1121+516+112 gae/Ha): 93%; Mean Percent Weed Control ([2]; Table I, 8 Weeks After Treatment, 5 sites, Penoxsulam 140 gai/Ha, Scotts Plus 2 1682+841 gae/Ha, Trimec 1121+516+112 gae/Ha): 87%; Mean Percent Weed Control ([2]; Table III, 4 Weeks After Treatment, 22.4 gai/Ha, 6 sites): 45%; Mean Percent Weed Control ([2]; Table III, 4 Weeks After Treatment, 44.9 gai/Ha, 6 sites): 61%; Mean Percent Weed Control ([2]; Table III, 4 Weeks After Treatment, 67.3 gai/Ha, 6 sites): 61%; Mean Percent Weed Control ([2]; Table III, 4 Weeks After Treatment, 100 gai/Ha, 6 sites): 69%; Mean Percent Weed Control ([2]; Table III, 8 Weeks After Treatment, 22.4 gai/Ha, 6 sites): 25%; Mean Percent Weed Control ([2]; Table III, 8 Weeks After Treatment, 44.9 gai/Ha, 6 sites): 45%; Mean Percent Weed Control ([2]; Table III, 8 Weeks After Treatment, 67.3 gai/Ha, 6 sites): 47%; Mean Percent Weed Control ([2]; Table III, 8 Weeks After Treatment, 100 gai/Ha, 6 sites): 57%; % Control Component A ([3]; 22.4 gai/Ha on 30-3-4 granule fertilizer): 37%; % Control Component A ([3]; 44.9 gai/Ha on 30-3-4 granule fertilizer): 59%; Percent Weed Control 35 DAA [4, 7]: 71%; Percent Weed Control 35 DAA [4, 8]: 96%; Percent Weed Control 35 DAA [4, 9]: 98%; Percent Weed Control 35 DAA [4, 10]: 77%; Percent Weed Control 35 DAA [4, 11]: 96%; Percent Weed Control 35 DAA [4, 12]: 96%; Pre-emergent Percent Mean Control ([5]; 8.8 gai/Ha): 88%; Pre-emergent Percent Mean Control ([5]; 17.5 gai/Ha): 94%; Pre-emergent Percent Mean Control ([5]; 35 gai/Ha): 100%; Pre-emergent Percent Mean Control ([5]; 70 gai/Ha): 100%; Percent Weed Control 35 DAA [6, 7]: 60%; Percent Weed Control 35 DAA [6, 8]: 70%; Percent Weed Control 35 DAA [6, 9]: 89%; Percent Weed Control 35 DAA [6, 10]: 37%; Percent Weed Control 35 DAA [6, 11]: 57%; Percent Weed Control 35 DAA [6, 12]: 79%
